Experimental data: patent publication US20220081412A1, “QUINOLINYL-PYRAZINE-CARBOXAMIDE COMPOUNDS AND USES THEREOF” (The Regents of the University of Michigan, priority 2018, published 2022)

Test system: MIA PaCa-2 cells
Experiment: Bru-seq analysis for nascent RNA synthesis (log2FC of genes, GSEA gene sets)
Type: cell-based, human
Settings: downregulated gene sets, 4 h, MIA PaCa-2 cells

CCN(CC)CCCC(C)Nc1cnc(C(=O)Nc2cc(C)cc3cccnc23)cn1 (stereo not drawn) [J4, 5-((5-(diethylamino)pentan-2-yl)amino)-N-(6-methylquinolin-8-yl)pyrazine-2-carboxamide]
NES TURASHVILI_BREAST_LOBULAR_CARCINOMA_VS_DUCTAL_NORMAL_DN (C2): −1.603 | NES ZHANG_TLX_TARGETS_36HR_DN (C2): −2.309 | NES ZHANG_TLX_TARGETS_DN (C2): −1.942 | NES ZHENG_FOXP3_TARGETS_IN_T_LYMPHOCYTE_DN (C2): −1.893 | ES GO_BASAL_PART_OF_CELL (GO): −0.526 | ES GO_CELL_SURFACE_RECEPTOR_SIGNALING_PATHWAY_INVOLVED_IN_CELL_CELL_SIGNALING (GO): −0.570 | ES GO_CILIUM_ORGANIZATION (GO): −0.331 | ES GO_CYTOKINE_RECEPTOR_ACTIVITY (GO): −0.488 | ES GO_DENDRITIC_SHAFT (GO): −0.568 | ES GO_DNA_DEPENDENT_ATPASE_ACTIVITY (GO): −0.369 | ES GO_DNA_DEPENDENT_DNA_REPLICATION_MAINTENANCE_OF_FIDELITY (GO): −0.569 | ES GO_DNA_DOUBLE_STRAND_BREAK_PROCESSING (GO): −0.551 | ES GO_DNA_HELICASE_ACTIVITY (GO): −0.389 | ES GO_DNA_REPAIR_COMPLEX (GO): −0.429 | ES GO_GLUTAMINE_METABOLIC_PROCESS (GO): −0.569 | ES GO_G_PROTEIN_COUPLED_RECEPTOR_ACTIVITY (GO): −0.476 | ES GO_HOMOPHILIC_CELL_ADHESION_VIA_PLASMA_MEMBRANE_ADHESION_MOLECULES (GO): −0.581 | ES GO_MITOTIC_RECOMBINATION (GO): −0.420 | ES GO_NEGATIVE_REGULATION_OF_EPITHELIAL_CELL_DIFFERENTIATION (GO): −0.597 | ES GO_PHOSPHOLIPID_TRANSPORTER_ACTIVITY (GO): −0.549 | ES GO_POTASSIUM_CHANNEL_COMPLEX (GO): −0.536 | ES GO_RECIPROCAL_DNA_RECOMBINATION (GO): −0.450 | ES GO_RECOMBINATIONAL_REPAIR (GO): −0.382 | ES GO_REGULATION_OF_ACUTE_INFLAMMATORY_RESPONSE (GO): −0.521 | ES GO_REGULATION_OF_MEMBRANE_LIPID_DISTRIBUTION (GO): −0.521 | ES GO_RESPONSE_TO_X_RAY (GO): −0.501 | ES GO_SOMATIC_RECOMBINATION_OF_IMMUNOGLOBULIN_GENE_SEGMENTS (GO): −0.498 | ES GO_SOMITE_DEVELOPMENT (GO): −0.451 | ES GO_STRAND_DISPLACEMENT (GO): −0.471 | NES GO_BASAL_PART_OF_CELL (GO): −1.629 | NES GO_CELL_SURFACE_RECEPTOR_SIGNALING_PATHWAY_INVOLVED_IN_CELL_CELL_SIGNALING (GO): −1.653 | NES GO_CILIUM_ORGANIZATION (GO): −1.502 | NES GO_CYTOKINE_RECEPTOR_ACTIVITY (GO): −1.467 | NES GO_DENDRITIC_SHAFT (GO): −1.746 | NES GO_DNA_DEPENDENT_ATPASE_ACTIVITY (GO): −1.545 | NES GO_DNA_DEPENDENT_DNA_REPLICATION_MAINTENANCE_OF_FIDELITY (GO): −1.697 | NES GO_DNA_DOUBLE_STRAND_BREAK_PROCESSING (GO): −1.613 | NES GO_DNA_HELICASE_ACTIVITY (GO): −1.504 | NES GO_DNA_REPAIR_COMPLEX (GO): −1.586 | NES GO_GLUTAMINE_METABOLIC_PROCESS (GO): −1.616 | NES GO_G_PROTEIN_COUPLED_RECEPTOR_ACTIVITY (GO): −1.804 | NES GO_HOMOPHILIC_CELL_ADHESION_VIA_PLASMA_MEMBRANE_ADHESION_MOLECULES (GO): −1.691 | NES GO_MITOTIC_RECOMBINATION (GO): −1.547 | NES GO_NEGATIVE_REGULATION_OF_EPITHELIAL_CELL_DIFFERENTIATION (GO): −1.799 | NES GO_PHOSPHOLIPID_TRANSPORTER_ACTIVITY (GO): −1.692 | NES GO_POTASSIUM_CHANNEL_COMPLEX (GO): −1.693 | NES GO_RECIPROCAL_DNA_RECOMBINATION (GO): −1.485 | NES GO_RECOMBINATIONAL_REPAIR (GO): −1.548 | NES GO_REGULATION_OF_ACUTE_INFLAMMATORY_RESPONSE (GO): −1.555 | NES GO_REGULATION_OF_MEMBRANE_LIPID_DISTRIBUTION (GO): −1.498 | NES GO_RESPONSE_TO_X_RAY (GO): −1.636 | NES GO_SOMATIC_RECOMBINATION_OF_IMMUNOGLOBULIN_GENE_SEGMENTS (GO): −1.483 | NES GO_SOMITE_DEVELOPMENT (GO): −1.594 | NES GO_STRAND_DISPLACEMENT (GO): −1.493 | ES HALLMARK_KRAS_SIGNALING_DN (HALLMARK): −0.282 | ES HALLMARK_KRAS_SIGNALING_UP (HALLMARK): −0.230 | ES HALLMARK_MYC_TARGETS_V1 (HALLMARK): −0.172 | ES HALLMARK_MYC_TARGETS_V2 (HALLMARK): −0.178 | ES HALLMARK_TGF_BETA_SIGNALING (HALLMARK): −0.324 | NES HALLMARK_KRAS_SIGNALING_DN (HALLMARK): −0.992 | NES HALLMARK_KRAS_SIGNALING_UP (HALLMARK): −0.965 | NES HALLMARK_MYC_TARGETS_V1 (HALLMARK): −0.831 | NES HALLMARK_MYC_TARGETS_V2 (HALLMARK): −0.691 | NES HALLMARK_TGF_BETA_SIGNALING (HALLMARK): −1.256 | ES KEGG_ABC_TRANSPORTERS (KEGG): −0.412 | ES KEGG_ADHERENS_JUNCTION (KEGG): −0.158 | ES KEGG_ALANINE_ASPARTATE_AND_GLUTAMATE_METABOLISM (KEGG): −0.250 | ES KEGG_AMYOTROPHIC_LATERAL_SCLEROSIS_ALS (KEGG): −0.247 | ES KEGG_AXON_GUIDANCE (KEGG): −0.201 | ES KEGG_CALCIUM_SIGNALING_PATHWAY (KEGG): −0.324 | ES KEGG_CELL_ADHESION_MOLECULES_CAMS (KEGG): −0.231 | ES KEGG_CYTOSOLIC_DNA_SENSING_PATHWAY (KEGG): −0.247 | ES KEGG_DNA_REPLICATION (KEGG): −0.254 | ES KEGG_ECM_RECEPTOR_INTERACTION (KEGG): −0.201 | ES KEGG_HEDGEHOG_SIGNALING_PATHWAY (KEGG): −0.329 | ES KEGG_HOMOLOGOUS_RECOMBINATION (KEGG): −0.260 | ES KEGG_MISMATCH_REPAIR (KEGG): −0.375 | ES KEGG_NEUROACTIVE_LIGAND_RECEPTOR_INTERACTION (KEGG): −0.624 | ES KEGG_NUCLEOTIDE_EXCISION_REPAIR (KEGG): −0.241 | ES KEGG_PATHOGENIC_ESCHERICHIA_COLI_INFECTION (KEGG): −0.220 | ES KEGG_PURINE_METABOLISM (KEGG): −0.285 | ES KEGG_PYRIMIDINE_METABOLISM (KEGG): −0.256 | ES KEGG_RIG_I_LIKE_RECEPTOR_SIGNALING_PATHWAY (KEGG): −0.197 | ES KEGG_RNA_POLYMERASE (KEGG): −0.202 | ES KEGG_STARCH_AND_SUCROSE_METABOLISM (KEGG): −0.342 | ES KEGG_TGF_BETA_SIGNALING_PATHWAY (KEGG): −0.336 | ES KEGG_WNT_SIGNALING_PATHWAY (KEGG): −0.231 | NES KEGG_ABC_TRANSPORTERS (KEGG): −1.220 | NES KEGG_ADHERENS_JUNCTION (KEGG): −0.628 | NES KEGG_ALANINE_ASPARTATE_AND_GLUTAMATE_METABOLISM (KEGG): −0.732 | NES KEGG_AMYOTROPHIC_LATERAL_SCLEROSIS_ALS (KEGG): −0.838 | NES KEGG_AXON_GUIDANCE (KEGG): −0.829 | NES KEGG_CALCIUM_SIGNALING_PATHWAY (KEGG): −1.264 | NES KEGG_CELL_ADHESION_MOLECULES_CAMS (KEGG): −0.738 | NES KEGG_CYTOSOLIC_DNA_SENSING_PATHWAY (KEGG): −0.784 | NES KEGG_DNA_REPLICATION (KEGG): −0.912 | NES KEGG_ECM_RECEPTOR_INTERACTION (KEGG): −0.655 | NES KEGG_HEDGEHOG_SIGNALING_PATHWAY (KEGG): −0.982 | NES KEGG_HOMOLOGOUS_RECOMBINATION (KEGG): −0.820 | NES KEGG_MISMATCH_REPAIR (KEGG): −1.179 | NES KEGG_NEUROACTIVE_LIGAND_RECEPTOR_INTERACTION (KEGG): −1.955 | NES KEGG_NUCLEOTIDE_EXCISION_REPAIR (KEGG): −0.899 | NES KEGG_PATHOGENIC_ESCHERICHIA_COLI_INFECTION (KEGG): −0.782 | NES KEGG_PURINE_METABOLISM (KEGG): −1.277 | NES KEGG_PYRIMIDINE_METABOLISM (KEGG): −1.109 | NES KEGG_RIG_I_LIKE_RECEPTOR_SIGNALING_PATHWAY (KEGG): −0.724 | NES KEGG_RNA_POLYMERASE (KEGG): −0.669 | NES KEGG_STARCH_AND_SUCROSE_METABOLISM (KEGG): −1.006 | NES KEGG_TGF_BETA_SIGNALING_PATHWAY (KEGG): −1.284 | NES KEGG_WNT_SIGNALING_PATHWAY (KEGG): −0.992 | ES BRN2_01 (TFBT): −0.247 | ES CDPCR1_01 (TFBT): −0.259 | ES CDP_01 (TFBT): −0.301 | ES EN1_01 (TFBT): −0.276 | ES FOXJ2_02 (TFBT): −0.261 | ES GGCKCATGS_UNKNOWN (TFBT): −0.441 | ES HMEF2_Q6 (TFBT): −0.266 | ES HNF1_Q6 (TFBT): −0.266 | ES HOX13_01 (TFBT): −0.366 | ES IK1_01 (TFBT): −0.227 | ES IRF2_01 (TFBT): −0.324 | ES MEF2_02 (TFBT): −0.225 | ES MEF2_Q6_01 (TFBT): −0.220 | ES MEIS1BHOXA9_01 (TFBT): −0.320 | ES NKX3A_01 (TFBT): −0.267 | ES PAX8_01 (TFBT): −0.439
